This passage reports inhibition and IC50 results from patent US9839701B2, “Aromatic amino acid derivative and positron emission topography (PET) probe using the same” (OSAKA UNIVERSITY, priority 2013, dated 2017).

In this assay the target is T1, human LAT2 (Homo sapiens, UniProt Q9UHI5).
T1 construct: expressed in transfected cells
T1 sequence (Q9UHI5 1-535): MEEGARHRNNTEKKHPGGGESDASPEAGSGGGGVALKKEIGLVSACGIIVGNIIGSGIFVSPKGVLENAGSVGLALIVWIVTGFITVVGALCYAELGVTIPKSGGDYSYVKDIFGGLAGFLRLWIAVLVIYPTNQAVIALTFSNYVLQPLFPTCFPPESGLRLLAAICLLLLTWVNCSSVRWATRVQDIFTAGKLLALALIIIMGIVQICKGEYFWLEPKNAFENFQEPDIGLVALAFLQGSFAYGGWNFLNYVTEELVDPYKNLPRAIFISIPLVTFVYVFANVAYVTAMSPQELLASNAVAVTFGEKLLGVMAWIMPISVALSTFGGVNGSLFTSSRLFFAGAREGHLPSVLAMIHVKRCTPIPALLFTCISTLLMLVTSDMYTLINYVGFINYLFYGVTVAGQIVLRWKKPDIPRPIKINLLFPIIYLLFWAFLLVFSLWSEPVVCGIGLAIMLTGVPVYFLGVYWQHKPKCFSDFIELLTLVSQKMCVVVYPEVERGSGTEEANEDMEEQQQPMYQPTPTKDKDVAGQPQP
T1 sequence (P08195 1-529 partner): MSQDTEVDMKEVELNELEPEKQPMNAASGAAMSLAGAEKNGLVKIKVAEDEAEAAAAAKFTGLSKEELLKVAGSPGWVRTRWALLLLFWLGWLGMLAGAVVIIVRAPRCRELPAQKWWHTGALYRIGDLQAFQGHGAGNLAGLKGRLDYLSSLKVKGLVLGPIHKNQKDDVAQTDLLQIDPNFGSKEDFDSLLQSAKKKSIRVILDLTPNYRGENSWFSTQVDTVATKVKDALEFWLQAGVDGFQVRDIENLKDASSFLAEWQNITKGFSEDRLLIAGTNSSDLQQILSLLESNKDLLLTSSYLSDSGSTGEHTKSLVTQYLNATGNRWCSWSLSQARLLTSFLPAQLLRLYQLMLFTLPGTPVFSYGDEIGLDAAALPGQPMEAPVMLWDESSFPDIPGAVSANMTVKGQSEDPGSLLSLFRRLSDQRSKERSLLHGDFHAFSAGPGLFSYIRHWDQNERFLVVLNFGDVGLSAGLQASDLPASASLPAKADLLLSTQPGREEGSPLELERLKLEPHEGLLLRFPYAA
In words: Inhibition of amino acid uptake in human LAT2 stably expressing cell line. Format: cell-based. An excerpt:
A human LAT1 expression vector or a human LAT2 expression vector was transfected using Lipofectamine (registered trademark) 2000 (Invitrogen) into a human embryonic kidney cell line HEK293. G418-resistant HEK293 clones were selected, and among them, a clone showing human LAT1-specific amino acid uptake and a clone showing human LAT2-specific amino acid uptake were selected and established as a human LAT1 stably expressing cell line and a human LAT2 stably expressing cell line, respectively (Khunweeraphong et al. J Pharmacol Sci. 2012 Aug. 18; 119(4): 368-80. Epub 2012 Jul. 31).
The human LAT1 stably expressing cell line and the human LAT2 stably expressing cell line were seeded at 1.2×10^5 cells/well on separate collagen-coated 24-well plates, and after 48 hours, the cells were washed 3 times with an uptake buffer (Na^2+-free Hank's balanced salt solution (HBSS), pH 7.4) prewarmed at 37° C. Compound 10a, compound 10b or a positive control FAMT (fluoro-α-methyltyrosine) was added at 100 μM, and incubation was performed at 37° C. for 3 minutes. Cells not treated with any of these compounds were used as a negative control. After the incubation, 1 μM of [^14C]L-leucine or [^14C]alanine was added to the wells, [^14C]L-leucine or [^14C]alanine uptake was allowed to proceed for 1 minute, and the cells were washed 3 times with an ice-cold uptake buffer. Subsequently, 500 μL of 0.1 M NaOH was added to each well for cell lysis, 20 μL of the lysate was used for the measurement of the protein concentration, and the remaining lysate was used for the measurement of the intracellular radioactivity. The measured radioactivity was normalized to the protein concentration, and on the assumption that the amino acid uptake activity in the negative control was 100%, the percentage (%) of inhibition of amino acid uptake in the presence of each compound was calculated.
Using the same cell lines as described in Example 2, the compound of Example 1 was examined for the inhibitory effect on leucine or alanine uptake in the human LAT1 stably expressing cell line and the human LAT2 stably expressing cell line in the same manner as in Example 2. FAMT was used as the positive control. The compound of Example 1 or FAMT was added at 100 μM. Cells not treated with either of these compounds were used as a negative control. On the assumption that the amino acid uptake activity in the negative control (control) was 100%, the percentage (%) of inhibition of amino acid uptake in the presence of FAMT or the compound of Example 1 was calculated. In addition, the cancer cell selectivity was calculated as the ratio of the amino acid uptake activity in the human LAT2 stably expressing cell line relative to that in the human LAT1 stably expressing cell line.
In another experiment, the cells were treated with the compound of Example 1 at eight different concentrations (0.1, 1, 3, 10, 30, 100, 300 and 1000 μM), and the concentration causing 50% inhibition of amino acid uptake was calculated as the IC50 value.
A human LAT1 stably expressing cell line and a human LAT2 stably expressing cell line, each of which was the same as described in Example 2, were seeded at 1.2×10^5 cells/well, and after 48 hours, the cells were washed 3 times with an uptake buffer (Na^2+-free Hank's balanced salt solution (HBSS), pH 7.4) prewarmed at 37° C. The test compounds, L-tyrosine or the positive control FAMT (fluoro-α-methyltyrosine) was added at 30 μM, and incubation was performed at 37° C. for 3 minutes. Cells not treated with any of these compounds were used as a negative control. After the incubation, 1 μM of [^14C]L-leucine or [^14C]alanine was added to the wells, [^14C]L-leucine or [^14C]alanine uptake was allowed to proceed for 1 minute, and the cells were washed 3 times with an ice-cold uptake buffer. […]

For `NC(Cc1cc(OCCF)ccc1I)C(=O)O` (centres unmarked) [Example 1, 2-amino-3-(5-(2-fluoroethoxy)-2-iodophenyl)propanoic acid], the inhibition – broadly, the relative decrease from the control value, in per cent – at 100 µM (HEK293, compound at 100 μM, human LAT2 stably expressing HEK293 cell line, 1 μM [14C]L-leucine or [14C]alanine, 1 min uptake, read-out: Percentage of inhibition of LAT2-mediated amino acid uptake) is 55.1%. Besides, half-maximal inhibition (eight concentrations 0.1-1000 μM) (IC50) required 84 µM.
